From patent US20070025995A1, “Taxoid derivative covalently linked to tumor-specific antibody and a method for preparing the same” (priority 2005, published 2007)

System: tubulin
Assay: Tubulin polymerization activity (HTS-Tubulin Polymerization Assay Kit, OD340)
Type: biochemical
Conditions: absorbance at 340 nm over reaction time; FIG. 1; paclitaxel control 3.7 mg/mL aqueous solution
From the text: The anticancer agent of the present invention has the structure of paclitaxel or docetaxel, and thus it was conjectured that the compound manifests its anticancer effects by inducing overproduction of tubulin in the same manner as paclitaxel or docetaxel. However, this compound blocks tubulin polymerization in the same manner as vinblastine. The tubulin polymerization activity assay was, as shown in Test Example 1, determined by measuring the absorbance at 340 nm and measuring tubulin polymerization activity.
Tubulin polymerization activity was measured using the HTS-Tubulin Polymerization Assay Kit (manufactured by Cytoskeleton) with respect to both the reaction solution of the present invention obtained in Example 1 and 3.7 mg/mL aqueous solution of paclitaxel used as a control.
The horizontal axis in the figure denotes reaction time (min) and the vertical axis represents tubulin polymerization activity (OD340).

CC(=O)O[C@H]1C(=O)[C@@]2(C)[C@H]([C@H](OC(=O)c3ccccc3)[C@]3(O)C[C@H](OC(=O)[C@H](O)[C@@H](NC(=O)c4ccccc4)c4ccccc4)C(C)=C1C3(C)C)[C@]1(OC(C)=O)CO[C@@H]1C[C@@H]2O [paclitaxel, Paclitaxel]
tubulin polymerization activity (OD340): tubulin polymerization was stimulated
